SMILES strings stand for the structures.

For the assay, the target named is T1, DPP-IV from porcine kidneys (Sus scrofa, UniProt P22411).
T1 construct: DPP-IV from porcine kidneys (Sigma, Munich); purchased Sigma, Munich; host or cells: porcine kidney tissue
T1 sequence (P22411 whole entry): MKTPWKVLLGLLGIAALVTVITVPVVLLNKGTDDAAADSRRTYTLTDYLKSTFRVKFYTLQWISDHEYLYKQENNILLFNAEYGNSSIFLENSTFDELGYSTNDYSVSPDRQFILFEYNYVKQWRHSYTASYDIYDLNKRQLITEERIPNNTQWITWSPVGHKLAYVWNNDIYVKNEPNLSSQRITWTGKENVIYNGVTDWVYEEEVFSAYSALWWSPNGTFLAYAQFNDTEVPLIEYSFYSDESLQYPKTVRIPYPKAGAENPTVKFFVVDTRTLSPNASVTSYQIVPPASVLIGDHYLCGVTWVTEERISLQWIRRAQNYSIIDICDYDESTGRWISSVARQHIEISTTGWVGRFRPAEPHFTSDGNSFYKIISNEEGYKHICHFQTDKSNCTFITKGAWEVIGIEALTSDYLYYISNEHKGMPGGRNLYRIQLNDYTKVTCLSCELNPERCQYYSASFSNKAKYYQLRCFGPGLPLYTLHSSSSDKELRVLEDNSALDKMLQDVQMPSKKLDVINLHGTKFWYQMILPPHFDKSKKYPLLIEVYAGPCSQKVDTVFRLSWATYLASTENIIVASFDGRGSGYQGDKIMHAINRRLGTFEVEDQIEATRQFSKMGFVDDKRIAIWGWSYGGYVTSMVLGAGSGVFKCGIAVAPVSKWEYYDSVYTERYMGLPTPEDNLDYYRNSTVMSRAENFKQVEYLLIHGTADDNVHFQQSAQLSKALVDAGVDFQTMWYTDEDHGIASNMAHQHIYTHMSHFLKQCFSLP
Briefly: Measurement of the DPP-IV activity (fluorimetric, H-Ala-Pro-AFC substrate). The settings on record: DPP-IV 1 mU/ml, substrate H-Ala-Pro-AFC 15 μM, Tris/HCl pH 7.4, room temperature. The class given is biochemical. As to the method: Measurement of the DPP-IV activity:
DPP-IV from porcine kidneys (Sigma, Munich)
H-Ala-Pro-AFC (Bachem, Weil am Rhein)
DPP-IV (1 mU/ml, end concentration)
H-Ala-Pro-AFC (15 μm end concentration)
in Tris/HCl (40 mM, pH 7.4), total volume 0.2 ml
The reaction was performed at room temperature for different periods (typically 10 minutes) and stopped at the end of the reaction by adding 20 μl of ZnCl2 (1 M). The conversion of H-AIa-Pro-AFC was determined fluorimetrically by measuring the emission at 535 nm on excitation at 405 nm. In the case of addition of inhibitors, the buffer volume added was adjusted such that a total volume of the test mixture of 200 μl was maintained.
IC50 values for inhibitors were determined by varying the inhibitor concentrations at the given substrate concentration of 15 μM. Ki and Km values were determined by corresponding variation of substrate and inhibitor concentration as described (Dixon, M. and Webb, E. C. (1979) Enzymes, third edition, pp. 47-206, Academic Press). The values for Km, IC50 and Ki were calculated using a commercially available software package (Leatherbarrow, R. J. (1992) GraFit Version 3.0, Erithacus Software Ltd. Staines, U.K.).
As usually defined, the IC50 is the concentration at which inhibition is half-maximal. High values mean weaker potency, low ones greater potency. Molecule `N[C@@H]1CCCN(c2nc3ccc(C(=O)NCc4cccc(C(F)(F)F)c4)cc3n2Cc2ccc(F)cc2)C1` [Example 2] registered an IC50 of 1000 nM. This counts as single-digit micromolar.

For `N[C@@H]1CCCN(c2nc3ccc(C(=O)NCc4cccnc4)cc3n2Cc2ccc(F)cc2)C1` [Example 5], half-maximal inhibition (IC50) was put at 2500 nM.

Take `N[C@@H]1CCCN(c2nc3cc(C(=O)NCc4ccc(Cl)cc4)ccc3n2Cc2ccc(F)cc2)C1` [Example 6]: 4300 nM corresponded to half-maximal inhibition (IC50). Compared with the last molecule, the IC50 is about 1.7-fold higher.

As to `CC(C)=CCn1c(N2CCC[C@@H](N)C2)nc2ccc(C(=O)Nc3ccc(F)cc3)cc21` [Example 11], the IC50 was 1800 nM.

The values above are taken from patent US8163774B2, “Amide-substituted 8-N-benzimidazoles, method for the production thereof, and use of the same as medicaments” (Sanofi-Aventis, priority 2005, dated 2012).
